Measured values published in patent publication US20090221581A1, “Methods of treating pain” (priority 2005, published 2009).

Key:
[1] = target: T1, CDK5/p35NCK (Homo sapiens, UniProt Q00535); test: In vitro kinase inhibition assay, CDK5/p35NCK; assay type: biochemical
T1 construct: made in house; host or cells: Sf9 insect cells, baculovirus

[2] = target: T2, CDK1/CycB (Homo sapiens, UniProt P06493); test: In vitro kinase inhibition assay, CDK1/CycB; assay type: biochemical
T2 construct: made in house; host or cells: Sf9 insect cells, baculovirus
T2 sequence (P06493 whole entry): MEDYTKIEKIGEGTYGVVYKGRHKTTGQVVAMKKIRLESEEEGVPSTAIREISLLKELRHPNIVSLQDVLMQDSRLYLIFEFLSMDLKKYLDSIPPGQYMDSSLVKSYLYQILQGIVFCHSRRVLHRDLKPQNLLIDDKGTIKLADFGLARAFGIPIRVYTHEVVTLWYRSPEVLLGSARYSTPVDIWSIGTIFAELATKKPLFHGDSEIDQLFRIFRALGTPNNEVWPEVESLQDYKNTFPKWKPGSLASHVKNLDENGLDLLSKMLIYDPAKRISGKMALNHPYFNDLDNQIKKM
T2 sequence (P14635 whole entry partner): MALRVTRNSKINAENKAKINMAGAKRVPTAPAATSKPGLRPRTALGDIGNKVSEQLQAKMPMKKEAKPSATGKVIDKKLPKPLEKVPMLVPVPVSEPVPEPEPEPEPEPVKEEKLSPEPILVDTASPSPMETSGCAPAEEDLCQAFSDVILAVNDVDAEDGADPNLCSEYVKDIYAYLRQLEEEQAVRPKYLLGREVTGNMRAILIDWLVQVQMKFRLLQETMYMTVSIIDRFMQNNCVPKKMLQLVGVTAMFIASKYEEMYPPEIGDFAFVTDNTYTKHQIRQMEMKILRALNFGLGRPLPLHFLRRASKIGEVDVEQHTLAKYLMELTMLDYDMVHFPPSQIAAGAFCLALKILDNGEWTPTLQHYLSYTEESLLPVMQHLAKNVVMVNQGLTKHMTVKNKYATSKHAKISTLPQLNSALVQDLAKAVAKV

[3] = tested on: SNI mice; test: Spared nerve injury (SNI) model of chronic neuropathic pain, von Frey assay; assay type: in vivo
From the text: As outlined above, the spared nerve injury (SNI) model (see FIG. 1) involves a lesion of two of the three terminal branches of the sciatic nerve (tibial and common peroneal nerves) of experimental animals, leaving the sural nerve intact. SNI results in mechanical and thermal allodynia in the non-injured sural nerve skin territory (Decosterd & Woolf, Pain 2000; 87:149-158; Tsujino et al., Mol. Cel. Neurosci. 2000; 15:170-182).
Wildtype mice (strain C3HeB/FeJ) (age, sex and weight matched) were anesthetized with Hypnorm (0.315 mg/ml fentanyl citrate+10 mg/ml fluanisone; Janssen)/Hypnovel (5 mg/ml midazolam; Roche Applied Sciences)/water at a ratio of 1:1:2 at 4 μl/g prior to surgical preparation.
Subsequently, an incision was made under aseptic precautions in the ipsi-lateral right hind leg of all mice just above the level of the knee, exposing the three terminal branches of the sciatic nerve: the common peroneal, tibial, and sural nerves. The common peroneal and tibial nerves were ligated tightly with 7/0 silk and sectioned distal to the ligation removing ≈2 mm of distal nerve stump. The sural branch remained untouched during the procedure (denoted herein “SNI ipsi”). The overlying muscle and skin was sutured, and the animals were allowed to recover and to permit wound healing. In the same mice, the sciatic nerve branches of the contra-lateral left hind leg were exposed but not lesioned (denoted herein “SNI contra-lateral”). Mice that underwent spared nerve injury are hereinafter denoted “SNI mice”.
After recovery from surgery and wound healing, SNI mice received intraperitoneal (i.p.) injections of CDK-inhibiting compounds. In particular, compound A and B as disclosed herein, belonging to the class of 4,6-disubstituted aminopyrimidine derivatives as described in WO2005/026129 were administered. […]
Injection of inhibitor or vehicle, and subsequent measurements of paw withdrawal threshold upon mechanical stimulation in von Frey assays were performed at day 0, day 7, day 21 and day 28 post SNI. Reflex nociceptive responses to mechanical stimulation were measured in a von Frey assay 30 min after each injection. An additional von Frey measurement was performed at day 14, but without prior injection of compound or vehicle.
Mice which underwent SNI and subsequent administration of the CDK-inhibiting compounds of the present invention were tested for signs of mechanical allodynia post nerve injury and post administration in a von Frey assay (Decosterd and Woolf, Pain 2000; 87:149-158). This assay determines the mechanical threshold upon which a stimulus, which normally is not painful, is recognized by an animal as uncomfortable or painful. SNI ipsi and SNI contra baselines, respectively, were established.
Mechanical thresholds of SNI mice were quantified using the up-down method based on Chaplan et al. (1994) and Malmberg and Basbaum (1998):
Mice were placed in plexiglass cylinders of about 9.5 cm in diameter, 14 cm high with four vent holes towards the top and a Plexiglas lid. The cylinders were placed on an elevated mesh surface (7×7 mm squares). Prior to the day of testing, the mice were adapted to the testing cylinders for 1-2 hours. On the day of testing the mice were adapted to the cylinders for about an hour, wherein the adaptation time depends on factors such as the strain of the mouse and the number of times they have been tested previously. In general, testing may begin once the mice are calm and stop exploring the new environment.
For testing mice, filaments 2.44, 2.83, 3.22, 3.61, 3.84, 4.08, and 4.31 (force range=0.04 to 2.0 g) were used. The […] filament was applied first. Said filament was gently applied to the plantar surface of one paw, allowed to bend, and held in position for 2-4 seconds. Whenever a positive response to the stimulus (flexion reaction) occurred, the next weaker von Frey filament was applied; whenever a negative response (no reaction) occurred, the next stronger force was applied. […]

T1 sequence (Q00535 whole entry): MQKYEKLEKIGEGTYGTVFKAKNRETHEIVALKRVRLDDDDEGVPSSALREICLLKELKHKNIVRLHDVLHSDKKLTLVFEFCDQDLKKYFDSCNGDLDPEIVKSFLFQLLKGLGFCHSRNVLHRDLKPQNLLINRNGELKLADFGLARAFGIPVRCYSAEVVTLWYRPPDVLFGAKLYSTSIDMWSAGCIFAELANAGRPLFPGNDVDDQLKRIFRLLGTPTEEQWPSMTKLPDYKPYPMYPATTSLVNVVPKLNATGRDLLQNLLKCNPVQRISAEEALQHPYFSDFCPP
T1 sequence (Q15078 whole entry partner): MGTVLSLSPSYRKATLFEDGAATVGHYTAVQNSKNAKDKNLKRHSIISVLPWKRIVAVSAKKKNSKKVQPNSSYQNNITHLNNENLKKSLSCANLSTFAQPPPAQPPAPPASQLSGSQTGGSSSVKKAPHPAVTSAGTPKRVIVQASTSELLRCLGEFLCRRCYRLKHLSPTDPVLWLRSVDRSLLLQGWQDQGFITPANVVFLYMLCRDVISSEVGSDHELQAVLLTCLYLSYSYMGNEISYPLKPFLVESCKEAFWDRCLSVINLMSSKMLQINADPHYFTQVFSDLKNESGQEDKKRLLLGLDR

COc1ccccc1-c1cc(Nc2cccc(S(N)(=O)=O)c2)ncn1 [Compound A]
IC50 [1]: 58.1 µM | IC50 [2]: 15.8 µM | effect on von Frey mechanical threshold ([3]; 30 mg/kg at midnight and 8.00 a.m., measured 8.30 a.m., day 28 post SNI): significant increases in thresholds | effect on SNI-induced allodynia (von Frey) ([3]; 30 mg/kg i.p. 30 minutes before von Frey testing): hypoalgesic effect | effect on von Frey mechanical threshold ([3]; 30 mg/kg i.p. 30 minutes prior to measurements, day 21 post SNI): significant increase of threshold values | effect on von Frey mechanical threshold ([3]; 30 mg/kg i.p., day 7 post SNI): does not show any effect | average von Frey threshold value, contra-lateral paw ([3]; 30 mg/kg i.p., day 21 and 28): ~0.4 g | average von Frey threshold value, ipsi-lateral paw ([3]; 30 mg/kg i.p., day 21 and 28): ~0.3 g
